Measured values published in PubChem BioAssay AID1845201 (Molecular Pharmacology Branch, DTP, NCI, 2023).
pIC50: −log10 of the molar value. Values joined by “and” are separate entries in the source; they are usually repeats but may differ in a detail not shown here. Equal entries are not always repeated.

Test system: COR L88 complex tumor spheroid viability
Test: Anticancer human tumor COR L88 cell line growth inhibition;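 further: compound exposure lasted 7 days before viability readout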;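 on viability, T/C: percent of DMSO vehicle-treated spheroids = 100%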
Conditions: for viability, T/C: stronger effect = lower value
Outline: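 Single agents and combinations were tested on spheroids built from tumor cells plus HUVEC and hMSC, at half-log dilutions starting at or near clinical Cmax, else 10 microM; final DMSO 0.25% (v/v).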

[1] = curve of first compound, second compound 30 pM
[2] = curve of first compound, second compound 94.9 pM
[3] = curve of first compound, second compound 0.0003 µM
[4] = curve of first compound, second compound 0.000949 µM
[5] = curve of first compound, second compound 0.003 µM
[6] = second compound 30 pM, first compound 0.0316 µM
[7] = second compound 30 pM, first compound 0.1 µM
[8] = second compound 30 pM, first compound 0.316 µM
[9] = second compound 30 pM, first compound 1 µM
[10] = second compound 30 pM, first compound 3.16 µM
[11] = second compound 30 pM, first compound 10 µM
[12] = second compound 94.9 pM, first compound 0.0316 µM
[13] = second compound 94.9 pM, first compound 0.1 µM
[14] = second compound 94.9 pM, first compound 0.316 µM
[15] = second compound 94.9 pM, first compound 1 µM
[16] = second compound 94.9 pM, first compound 3.16 µM
[17] = second compound 94.9 pM, first compound 10 µM
[18] = second compound 0.0003 µM, first compound 0.0316 µM
[19] = second compound 0.0003 µM, first compound 0.1 µM
[20] = second compound 0.0003 µM, first compound 0.316 µM
[21] = second compound 0.0003 µM, first compound 1 µM
[22] = second compound 0.0003 µM, first compound 3.16 µM
[23] = second compound 0.0003 µM, first compound 10 µM
[24] = second compound 0.000949 µM, first compound 0.0316 µM
[25] = second compound 0.000949 µM, first compound 0.1 µM
[26] = second compound 0.000949 µM, first compound 0.316 µM
[27] = second compound 0.000949 µM, first compound 1 µM
[28] = second compound 0.000949 µM, first compound 3.16 µM
[29] = second compound 0.000949 µM, first compound 10 µM
[30] = second compound 0.003 µM, first compound 0.0316 µM
[31] = second compound 0.003 µM, first compound 0.1 µM
[32] = second compound 0.003 µM, first compound 0.316 µM
[33] = second compound 0.003 µM, first compound 1 µM
[34] = second compound 0.003 µM, first compound 3.16 µM
[35] = second compound 0.003 µM, first compound 10 µM

Cc1cc(C)c(CNC(=O)c2cc(-c3ccc(CN4CCOCC4)cc3)cc3c2cnn3C2CCCC2)c(=O)[nH]1 + COc1cc2c(cc1O)CCNC21CSC2c3c(OC(C)=O)c(C)c4c(c3C(COC1=O)N1C(O)C3Cc5cc(C)c(OC)c(O)c5C(C21)N3C)OCO4 showed a pIC50 [1] of under 5.00, a pIC50 [2] of under 5.00 and a pIC50 [3] of 5.61. The pIC50 [4] was over 7.50, the pIC50 [5] was over 7.50 and the viability, T/C [6] was 107%. The viability, T/C [7] was 93.7%, the viability, T/C [8] was 102% and the viability, T/C [9] was 85.3%. It also gave a viability, T/C [10] of 73.8%, a viability, T/C [11] of 60.2% and a viability, T/C [12] of 98.4%. For the same compound, the viability, T/C [13] was 107%, the viability, T/C [14] was 104% and the viability, T/C [15] was 86.9%. It also gave a viability, T/C [16] of 79.2%, a viability, T/C [17] of 51.1% and a viability, T/C [18] of 63.8%. It also gave a viability, T/C [19] of 67.3%, a viability, T/C [20] of 62.6% and a viability, T/C [21] of 50.4%. For the same compound, the viability, T/C [22] was 48.7%, the viability, T/C [23] was 42.2% and the viability, T/C [24] was 49.3%. The viability, T/C [25] was 43.8%, the viability, T/C [26] was 39.7% and the viability, T/C [27] was 43.1%. It also gave a viability, T/C [28] of 35.2%, a viability, T/C [29] of 10.1% and a viability, T/C [30] of 1.12%. It also gave a viability, T/C [31] of 1.08%, a viability, T/C [32] of 0.94% and a viability, T/C [33] of 1.18%. For the same compound, the viability, T/C [34] was 0.93% and the viability, T/C [35] was 0.96%.

With Cc1sc2c(c1C)C(c1ccc(Cl)cc1)=NC(CC(=O)Nc1ccc(O)cc1)c1nnc(C)n1-2 (configuration not stated) + Cn1nnc2c(C(N)=O)ncn2c1=O the pIC50 (curve of first compound, second compound 1 µM) was 6.30, the pIC50 (curve of first compound, second compound 3.16 µM) was 6.20 and the pIC50 (curve of first compound, second compound 10 µM) was 6.21. The pIC50 (curve of first compound, second compound 31.6 µM) was 6.11, the pIC50 (curve of first compound, second compound 100 µM) was 6.06 and the viability, T/C (second compound 1 µM, first compound 0.00949 µM) was 86.5%. The viability, T/C (second compound 1 µM, first compound 0.03 µM) was 94%, the viability, T/C (second compound 1 µM, first compound 0.0949 µM) was 97.9% and the viability, T/C (second compound 1 µM, first compound 0.3 µM) was 63.2%. For the same compound, the viability, T/C (second compound 1 µM, first compound 0.949 µM) was 34.8%, the viability, T/C (second compound 1 µM, first compound 3 µM) was 22.4% and the viability, T/C (second compound 3.16 µM, first compound 0.00949 µM) was 98.8%. For the same compound, the viability, T/C (second compound 3.16 µM, first compound 0.03 µM) was 96.5%, the viability, T/C (second compound 3.16 µM, first compound 0.0949 µM) was 100% and the viability, T/C (second compound 3.16 µM, first compound 0.3 µM) was 70.6%. The viability, T/C (second compound 3.16 µM, first compound 0.949 µM) was 38.6%, the viability, T/C (second compound 3.16 µM, first compound 3 µM) was 21.5% and the viability, T/C (second compound 10 µM, first compound 0.00949 µM) was 88.1%. For the same compound, the viability, T/C (second compound 10 µM, first compound 0.03 µM) was 94.1%, the viability, T/C (second compound 10 µM, first compound 0.0949 µM) was 103% and the viability, T/C (second compound 10 µM, first compound 0.3 µM) was 64.7%. The viability, T/C (second compound 10 µM, first compound 0.949 µM) was 41.2%, the viability, T/C (second compound 10 µM, first compound 3 µM) was 18.8% and the viability, T/C (second compound 31.6 µM, first compound 0.00949 µM) was 89%. The viability, T/C (second compound 31.6 µM, first compound 0.03 µM) was 101%, the viability, T/C (second compound 31.6 µM, first compound 0.0949 µM) was 104% and the viability, T/C (second compound 31.6 µM, first compound 0.3 µM) was 87.7%. For the same compound, the viability, T/C (second compound 31.6 µM, first compound 0.949 µM) was 42.7%, the viability, T/C (second compound 31.6 µM, first compound 3 µM) was 23.8% and the viability, T/C (second compound 100 µM, first compound 0.00949 µM) was 78.4%. It also gave a viability, T/C (second compound 100 µM, first compound 0.03 µM) of 85.4%, a viability, T/C (second compound 100 µM, first compound 0.0949 µM) of 92.2% and a viability, T/C (second compound 100 µM, first compound 0.3 µM) of 88.1%. It also gave a viability, T/C (second compound 100 µM, first compound 0.949 µM) of 47.4% and a viability, T/C (second compound 100 µM, first compound 3 µM) of 28.2%.

With Cc1cc(C)c(CNC(=O)c2cc(-c3ccc(CN4CCOCC4)cc3)cc3c2cnn3C2CCCC2)c(=O)[nH]1 the viability, T/C (compound 0.0316 µM) was 92.8% and 89.3% and 93.7%, the viability, T/C (compound 0.1 µM) was 102% and 98.3% and 89.8% and the viability, T/C (compound 0.316 µM) was 101% and 100% and 96.4%. For the same compound, the viability, T/C (compound 1 µM) was 84.1% and 93.3% and 95.8%, the viability, T/C (compound 3.16 µM) was 85.2% and 88.7% and 77.4% and the viability, T/C (compound 10 µM) was 44.7% and 56.8% and 52.6%. For the same compound, the pIC50 (curve of compound) was 5.06 and < 5.00.

In the case of CC(C)n1c(=O)n(C)c2cnc3cc(F)c(-c4ccc(OCCCN5CCCCC5)nc4)cc3c21 + COc1cc2c(cc1O)CCNC21CSC2c3c(OC(C)=O)c(C)c4c(c3C(COC1=O)N1C(O)C3Cc5cc(C)c(OC)c(O)c5C(C21)N3C)OCO4, the pIC50 [1] was under 5.00, the pIC50 [2] was 5.04 and the pIC50 [3] was 5.32. For the same compound, the pIC50 [4] was 5.70, the pIC50 [5] was over 7.50 and the viability, T/C [6] was 104%. It also gave a viability, T/C [7] of 107%, a viability, T/C [8] of 95.9% and a viability, T/C [9] of 104%. It also gave a viability, T/C [10] of 94.1%, a viability, T/C [11] of 51.2% and a viability, T/C [12] of 104%. The viability, T/C [13] was 103%, the viability, T/C [14] was 98% and the viability, T/C [15] was 103%. For the same compound, the viability, T/C [16] was 89.3%, the viability, T/C [17] was 46.1% and the viability, T/C [18] was 64.2%. It also gave a viability, T/C [19] of 67.4%, a viability, T/C [20] of 65.2% and a viability, T/C [21] of 68.3%. The viability, T/C [22] was 61.2%, the viability, T/C [23] was 30.1% and the viability, T/C [24] was 57.3%. The viability, T/C [25] was 54.5%, the viability, T/C [26] was 54.7% and the viability, T/C [27] was 53.9%. The viability, T/C [28] was 47.3%, the viability, T/C [29] was 11.1% and the viability, T/C [30] was 0.74%. For the same compound, the viability, T/C [31] was 0.77%, the viability, T/C [32] was 0.6% and the viability, T/C [33] was 0.82%. It also gave a viability, T/C [34] of 0.66% and a viability, T/C [35] of 0.99%.

In the case of O=C(c1cc(Cc2n[nH]c(=O)c3ccccc23)ccc1F)N1CCN(C(=O)C2CC2)CC1 + CC[C@@]1(O)C(=O)OCc2c1cc1n(c2=O)Cc2cc3c(CN(C)C)c(O)ccc3nc2-1, the pIC50 [5] was 5.01, the pIC50 (curve of first compound, second compound 0.00949 µM) was 5.01 and the pIC50 (curve of first compound, second compound 0.03 µM) was 6.55. The pIC50 (curve of first compound, second compound 0.0949 µM) was over 7.02, the pIC50 (curve of first compound, second compound 0.3 µM) was over 7.02 and the viability, T/C (second compound 0.003 µM, first compound 0.0949 µM) was 89%. For the same compound, the viability, T/C (second compound 0.003 µM, first compound 0.3 µM) was 85.6%, the viability, T/C (second compound 0.003 µM, first compound 0.949 µM) was 85.3% and the viability, T/C (second compound 0.003 µM, first compound 3 µM) was 66%. The viability, T/C (second compound 0.003 µM, first compound 9.49 µM) was 51.3%, the viability, T/C (second compound 0.003 µM, first compound 30 µM) was 45.6% and the viability, T/C (second compound 0.00949 µM, first compound 0.0949 µM) was 62.3%. It also gave a viability, T/C (second compound 0.00949 µM, first compound 0.3 µM) of 56.2%, a viability, T/C (second compound 0.00949 µM, first compound 0.949 µM) of 57.3% and a viability, T/C (second compound 0.00949 µM, first compound 3 µM) of 57.5%. It also gave a viability, T/C (second compound 0.00949 µM, first compound 9.49 µM) of 47.3%, a viability, T/C (second compound 0.00949 µM, first compound 30 µM) of 45.8% and a viability, T/C (second compound 0.03 µM, first compound 0.0949 µM) of 51.3%. The viability, T/C (second compound 0.03 µM, first compound 0.3 µM) was 50.1%, the viability, T/C (second compound 0.03 µM, first compound 0.949 µM) was 48.3% and the viability, T/C (second compound 0.03 µM, first compound 3 µM) was 48%. It also gave a viability, T/C (second compound 0.03 µM, first compound 9.49 µM) of 45.9%, a viability, T/C (second compound 0.03 µM, first compound 30 µM) of 45.8% and a viability, T/C (second compound 0.0949 µM, first compound 0.0949 µM) of 45.7%. The viability, T/C (second compound 0.0949 µM, first compound 0.3 µM) was 44%, the viability, T/C (second compound 0.0949 µM, first compound 0.949 µM) was 44.3% and the viability, T/C (second compound 0.0949 µM, first compound 3 µM) was 41.9%. The viability, T/C (second compound 0.0949 µM, first compound 9.49 µM) was 40.3%, the viability, T/C (second compound 0.0949 µM, first compound 30 µM) was 33% and the viability, T/C (second compound 0.3 µM, first compound 0.0949 µM) was 41.4%. For the same compound, the viability, T/C (second compound 0.3 µM, first compound 0.3 µM) was 41%, the viability, T/C (second compound 0.3 µM, first compound 0.949 µM) was 39% and the viability, T/C (second compound 0.3 µM, first compound 3 µM) was 32.6%. For the same compound, the viability, T/C (second compound 0.3 µM, first compound 9.49 µM) was 24.4% and the viability, T/C (second compound 0.3 µM, first compound 30 µM) was 18.5%.
